Measurements as given in patent US20190308956A1, “PIPERAZINE DERIVATIVES AS ANTIVIRAL AGENTS WITH INCREASED THERAPEUTIC ACTIVITY” (SERVICIO ANDALUZ DE SALUD, priority 2016, published 2019).

What was measured:
wild-type HAdV5 = test: Virus yield reduction (burst assay, TCID50), HAdV5; type: cell-based
Method: 1.8. Virus yield reduction. The effect of the active compounds on virus production was evaluated in a burst assay A549 cells were infected with wild-type HAdV5 or HAdV16 (MOI 100) in the presence or absence of 50 μM compounds. After 48 h, cells were harvested and subjected to three rounds of freeze/thaw. Serial dilutions of clarified lysates were titrated on A549 cells and TCID50 values were calculated using an endpoint dilution method.46

A549 cells = test: Cytotoxicity assay (alamarBlue cell viability); type: cell-based, Human
Method: 1.4. Cytotoxicity assay. The cytotoxicity of the compounds was measured using the AlarmBlue cell viability assay (Invitrogen) according to the manufacturer's instructions. Actively dividing A549 cells were incubated with compounds for 48 h. After the incubation the alamarBlue reagent was added to the cells ( 1/10th alamarBlue reagent in culture medium) for an extra 4 h. The 50% cell cytotoxic concentration (CC50) of the molecules was calculated according to Cheng et al.42 The selectivity index (SI) was evaluated as the ratio of CC50 to IC50, where the IC50 is defined as the concentration of compound that inhibits HAdV infection by 50%.

[1] = tested on: Acinetobacter baumannii strains resistant to colistine; test: Screening of inhibition of bacterial growth at 50 μM; type: cell-based; settings: 5×10^5 CFU/ml, 18 h; for Screening, growth inhibition Ab 11: strain Ab 11, 50 μM; for Screening, growth inhibition Ab 17: strain Ab 17, 50 μM; for Screening, growth inhibition Ab 21R: strain Ab 21R; for Screening, growth inhibition Ab 21R / Screening, growth inhibition Ab 22P: 50 μM; for Screening, growth inhibition Ab 24: strain Ab 24, 50 μM; for Screening, growth inhibition Ab 14: strain Ab 14, 50 μM; for Screening, growth inhibition Ab 22P: strain Ab 22P
Source text: (§1) All of the strains used were Acinetobacter baumannii strains resistant to colistine: Resistance (R)≥4 Sensibility (S)≤2—All of these strains have been disclosed in Valencia R, Arroyo L A, Conde M, Aldana J M, Torres M J, Fernandez-Cuenca F, et al. Nosocomial outbreak of infection with pan-drug-resistant Acinetobacter baumannii in a tertiary care university hospital. Infection control and hospital epidemiology. 2009; 30(3):257-63. The specific strains used were the following: 1, 10, 11, 14, 16, 17, 19, 20, 21R, 22P, 24, 99 and 113.
Evaluation of the inhibition of the bacterial growth of the 4 families of piperazines derivatives was performed by using a final concentration of 50 μM of each piperazine derivative in a concentration of 5×10^5 CFU/ml of each strain of A. baumannii in 96-well plates.
These plates were incubated for 18 hours at 37° C.

HAdV5-GFP [2] = test: Plaque assay, HAdV5-GFP in 293β5 cells; type: cell-based
Method: 1.5. Plaque assay. For low MOI infections, active compounds were further evaluated in a plaque assay. 293β5 cells were seeded in 6-well plates at 4×10^5 cells per well in duplicate for each condition. When cells reached 80-90% confluency, they were infected with HAdV5-GFP or HAdV16-GFP (0.06 vp/cell) and rocked for 2 h at 37° C. The inoculum was removed and the cells were washed once with PBS. The cells were then carefully overlaid with 4 ml/well of equal parts of 1.6% […] Difco Agar Noble (Becton, Dickinson & Co, Sparks, MD) and 2× EMEM (BioWhittaker) supplemented with 2x penicillin/streptomycin, 2× L-glutamine and 10% FBS. The mixture also contained compound in concentrations ranging from 5 to 1 μM. Following incubation for 7 days at 37° C., plates were scanned with a Typhoon 9410 imager (GE Healthcare Life Sciences), and plaques were quantified with ImageJ.43
For the plaque assay 293β5 cells were infected with HAdV5-GFP (in the presence of compound at 10 μM) (Table 2). From this generation of compounds, our primary screening identified 4 compounds (12, 13, 22 and 25) that inhibited HAdV5-GFP plaque formation >90% compared to a control with the same volume of DMSO.

HAdV5-GFP [3] = test: Entry assay, HAdV5-GFP in A549 cells (GFP expression); type: cell-based
Method: 1.3. Entry assay. An initial rapid screening was performed using human A549 epithelial cells (3×10^5 cells/well in Corning black wall, clear bottom 96-well plates) infected with HAdV5-GFP (2,000 vp/cell) in the presence of 50 μM of the candidate antiviral compounds. Virus was preincubated with the compounds (individual and mixed) for 45 minutes at 4° C., and then added to cells. A standard infection curve was generated in parallel by infecting cells in the absence of compounds using serial two-fold dilutions of virus. All reactions were done in triplicate. Cells, virus and compounds were incubated for 48 h at 37° C. and 5% CO2. Infection, as measured by HAdV-mediated GFP expression, was analyzed using a Typhoon 9410 imager (GE Healthcare Life Sciences), and quantified with ImageQuantTL (GE Healthcare Life Sciences).

[4] = tested on: Acinetobacter baumannii strains resistant to colistine; test: Minimal inhibitory concentration (MIC), microdilution in MHBII; type: cell-based; settings: 5×10^5 CFU/ml, 18 h; for CMI (MIC) Ab 11: strain Ab 11, MHBII; for CMI (MIC) Ab 17: strain Ab 17, MHBII; for CMI (MIC) Ab 21R: strain Ab 21R; for CMI (MIC) Ab 21R / CMI (MIC) Ab 22P: MHBII; for CMI (MIC) Ab 24: strain Ab 24, MHBII; for CMI (MIC) Ab 14: strain Ab 14, MHBII; for CMI (MIC) Ab 22P: strain Ab 22P
Source text: as §1
Microdilution in cell medium Mueller Hinton Broth II (MHBII). This technique was carried out solely in those piperazines which presented inhibitory activity in the screening study.
We used decreasing concentrations of each piperazine derivative (from 50 μM -0.05 μM) in a concentration of 5×10^5 CFU/ml of each strain of A. baumannii in 96 well plates. These plates were incubated for 18 hours at a temperature 37° C.

Row | SMILES | YIELD REDUCTION (wild-type HAdV5) | CC50 (A549 cells) | Screening, growth inhibition Ab 11 [1] | Screening, growth inhibition Ab 17 [1] | Screening, growth inhibition Ab 21R [1] | Screening, growth inhibition Ab 24 [1] | Inhibition assay in plaque (HAdV5-GFP [2]) | Starting Inhibition assay (HAdV5-GFP [3]) | CMI (MIC) Ab 11 [4] | CMI (MIC) Ab 17 [4] | CMI (MIC) Ab 21R [4] | CMI (MIC) Ab 24 [4] | Screening, growth inhibition Ab 14 [1] | CMI (MIC) Ab 14 [4] | Screening, growth inhibition Ab 22P [1] | CMI (MIC) Ab 22P [4] | IC50 (HAdV5-GFP [2]; read-out: IC50 plaque)
1 | CC1CN(C(=O)Cc2ccccc2)CCN1C(=S)Nc1ccc(C#N)cc1 (stereo not drawn) [Vip 635] | 18.39 ± 5.44 | 175 µM | <50 µM | <50 µM | <50 µM | <50 µM | 98.36 ± 2.13 | 60.06 ± 17.39 | 50 µM | 50 µM | 50 µM | 50 µM |  |  |  |  | 
2 | CC1CN(C(=O)Cc2ccccc2)CCN1C(=S)Nc1ccc(Cl)cc1 (stereo not drawn) [Vip 629] |  | 175 µM | <50 µM | <50 µM | <50 µM | <50 µM | 84.56 ± 15.72 | 59.51 ± 17.45 | 25 µM | 25 µM | 50 µM | 50 µM | <50 µM | 25 µM |  |  | 
3 | CC1CN(C(=O)OC(C)(C)C)CCN1C(=S)Nc1ccc(C(F)(F)F)cc1 (stereo not drawn) [Vip 604] |  |  |  |  | <50 µM | <50 µM | 73.43 ± 22.49 | 43.24 ± 17.18 |  |  | 25 µM | 25 µM |  |  | <50 µM | 25 µM | 
4 | Cc1ccc(NC(=S)N2CCN(C(=O)OC(C)(C)C)CC2C)cc1 (stereo not drawn) [Vip 591] |  |  |  | <50 µM | <50 µM |  | 49.11 ± 4.73 | 56.61 ± 17.69 |  | 50 µM | 50 µM |  | <50 µM | >50 µM |  |  | 
5 | CC1CN(C(=O)OC(C)(C)C)CCN1C(=S)Nc1ccc(Cl)cc1 (stereo not drawn) [Vip 580] |  | 167 µM | <50 µM | <50 µM | <50 µM | <50 µM | 73.43 ± 4.19 | 64.11 ± 16.81 | 50 µM | 50 µM | 50 µM | 50 µM | <50 µM | 50 µM | <50 µM | 50 µM | 
6 | CC1CN(C(=O)Cc2ccccc2)CCN1C(=S)Nc1cc(C(F)(F)F)cc(C(F)(F)F)c1 (stereo not drawn) [Vip 634] | 33.42 ± 10.16 | 130 µM | <50 µM | <50 µM | <50 µM | <50 µM | 99.50 ± 1.58 | 94.46 ± 3.87 | 6.25 µM | 3.12 µM | 3.12 µM | 6.25 µM | <50 µM | 3.12 µM |  |  | 
7 | CC1CN(C(=O)Cc2ccccc2)CCN1C(=S)Nc1ccc([N+](=O)[O-])cc1 (stereo not drawn) [Vip 628] | 25.59 ± 10.45 | 210 µM | <50 µM | <50 µM |  | <50 µM | 98.21 ± 3.57 | 60.79 ± 17.31 | 50 µM | 25 µM |  | 50 µM |  |  |  |  | 2.04 µM
8 | Cc1ccc(NC(=S)N2CCN(C(=O)Cc3ccccc3)CC2C)cc1 (stereo not drawn) [Vip 636] |  |  | <50 µM | <50 µM | <50 µM | <50 µM | 13.79 ± 25.70 | 73.72 ± 14.39 | 50 µM | 25 µM | 25 µM | 50 µM |  |  |  |  | 
9 | CC1CN(C(=O)OC(C)(C)C)CCN1C(=S)Nc1cc(C(F)(F)F)cc(C(F)(F)F)c1 (stereo not drawn) [Vip 592] |  |  |  |  |  |  | 11.11 ± 19.25 | 71.76 ± 15.00 |  |  |  |  | <50 µM | 3.12 µM |  |  | 
10 | CC1CN(C(=O)Cc2ccccc2)CCN1C(=S)Nc1ccc(C(F)(F)F)cc1 (stereo not drawn) [Vip 633] |  |  | <50 µM | <50 µM |  | <50 µM | 45.36 ± 16.56 | 43.12 ± 17.16 | 25 µM | 25 µM |  | 50 µM |  |  |  |  | 
11 | CC1CN(C(=O)OC(C)(C)C)CCN1C(=S)Nc1ccc(F)cc1 (stereo not drawn) [Vip 585] | 12.08 ± 2.78 | 200 µM |  |  |  |  | 92.91 ± 3.82 | 75.54 ± 13.76 |  |  |  |  |  |  |  |  | 
12 | COc1ccc(NC(=S)N2CCN(C(=O)OC(C)(C)C)CC2C)cc1 (stereo not drawn) [Vip 590] |  |  |  |  |  |  | 36.55 ± 30.13 | 62.79 ± 17.03 |  |  |  |  | <50 µM | >50 µM |  |  | 
13 | CC1CN(C(=O)OC(C)(C)C)CCN1C(=S)Nc1ccc(C#N)cc1 (stereo not drawn) [Vip 584] |  | 175 µM | <50 µM | <50 µM | <50 µM | <50 µM | 88.91 ± 15.92 | 58.11 ± 25.72 | 50 µM | 25 µM | 50 µM | 50 µM | <50 µM | 50 µM | <50 µM | 50 µM | 
